The source made the active and inactive calls. The calls are words filed in the database; no cut-off is given here.
Experiments:
Plasmodium berghei [1] = experiment: Antimalarial activity against Plasmodium berghei infected in sc dosed mouse assessed as increase in mean survival time; assay type: functional, organism-based
Mus musculus = experiment: Toxicity in sc dosed mouse measured 2 to 5 days post-infection; assay type: organism-based; conditions: in vivo
Plasmodium berghei [2] = experiment: Antimalarial activity against Plasmodium berghei infected in mouse assessed as cure rate at 640 mg/kg, sc measured on day 60 post-infection; assay type: functional, organism-based; set-up: dose 640 mg/kg
Plasmodium berghei [3] = experiment: Antimalarial activity against Plasmodium berghei infected in mouse assessed as increase in mean survival time at 320 mg/kg, sc; assay type: functional; conditions: route subcutaneous
Plasmodium berghei [4] = experiment: Antimalarial activity against Plasmodium berghei infected in mouse assessed as increase in mean survival time at 40 mg/kg, sc; assay type: functional; conditions: route subcutaneous
Plasmodium berghei [5] = experiment: Antimalarial activity against Plasmodium berghei infected in mouse assessed as increase in mean survival time at 160 mg/kg, sc; assay type: functional; conditions: route subcutaneous
Plasmodium berghei [6] = experiment: Antimalarial activity against Plasmodium berghei infected in mouse assessed as increase in mean survival time at 80 mg/kg, sc; assay type: functional; conditions: route subcutaneous

## CN1CCCCC1C(O)c1cc2ccccc2c2cc(Br)ccc12.Cl (stereo not drawn)
Plasmodium berghei [1]
  Activity: Active
Mus musculus
  Activity: Toxic

## OC(c1cc(C(F)(F)F)nc2c(C(F)(F)F)cccc12)C1CCCNC1 (single isomer, unassigned; diastereomer 2)
Plasmodium berghei [2]
  Activity: inactive

## O=C(O)/C=C/C(=O)O.OC(c1cc(C(F)(F)F)nc2c(C(F)(F)F)cccc12)C1CCCNC1 (single isomer, unassigned; diastereomer 1)
Plasmodium berghei [3]
  MST: 15.2 days
Plasmodium berghei [4]
  MST: 5.9 days
Plasmodium berghei [5]
  MST: 11.2 days
Plasmodium berghei [6]
  MST: 10.1 days

## OC(c1cc(C(F)(F)F)nc2c(C(F)(F)F)cccc12)C1CCCNC1 (single isomer, unassigned; diastereomer 1)
Plasmodium berghei [2]
  Activity: Active

From ChEMBL document CHEMBL3272062, “Difference in antimalarial activity between certain amino alcohol diastereomers” (J Med Chem, 1976)
